{"source": "patent US20240293430A1", "about": "“WITHAFERIN A AND IMMUNE CHECKPOINT BLOCKER COMBINATION THERAPIES” (University of South Florida, priority 2023, published 2024)", "key": {"[1]": {"test_system": "ecto-CRT in LLC, H1650 and A549 cells", "assay": "Ecto-CRT (cell surface calreticulin) by flow cytometry, NSCLC", "assay_type": "cell-based, mouse (LLC), human (H1650", "settings": "48 h", "method": "(§1) Cells were treated with WFA for 48 h then collected using Accutase cell detachment solution. […] (FIG. 2E) Bone marrow-derived DC were co-cultured with WFA-pretreated LLC cells (24 h) in a ratio 5:1 of DC:LLC cells for 24 h.\nIn vitro WFA-treated or control cells were collected using Accutase cell detachment solution and stained with FACS-diluted (PBS, 10% FBS, 2 mMEDTA) pre-titrated fluorophore conjugated or primary unconjugated antibody solutions (Table 1) for 30 min on ice in the dark. In case of fluorophore-conjugated antibodies, samples are washed and immediately acquired after adding DAPI viability dye, while samples stained with unconjugated antibodies are incubated with the proper secondary fluorophore-conjugated antibody for 30 min before washing and acquisition. For in vivo experiments, the processed tumor or spleen single cell suspensions were used for surface staining with the pre-titrated antibodies (Table 1) for 30 min on ice in the dark. To exclude the dead cells from the analysis, a fixable live/dead Zombie Aqua viability kit (Biolegend, San Diego, CA, USA) was used according to the manufacturer's protocol. Samples were then fixed using 2% PFA for 15 min then washed and stored at 4° C. before acquisition. […]"}, "[2]": {"test_system": "immunosuppressive MDSC population", "settings": "mouse, in vivo; cited from earlier work"}, "[3]": {"test_system": "PD-L1 expression in MC38, HCT116 colon cancer cell lines", "assay": "PD-L1 expression in colon cancer cell lines", "assay_type": "cell-based, mouse (MC38), human (HCT116)", "method": "FIGS. 8A-8G depict that WFA induced ICD and PD-L1 upregulation in colorectal cancer cell lines. WFA increased the levels of ecto-CRT in the murine colorectal cancer cell line (FIG. 8A) MC-38 and human cell line (FIG. 8B) HCT-116. WFA increased the expression of PD-L1 in both (FIG. 8C) MC-38 and (FIG. 8D) HCT-116 cells. […] H1650 cells (at a higher density) were treated with a higher concentration of WFA (2 and 4 μM) to facilitate cell collection and protein isolation. The band density was quantified using Image J software and normalized to the housekeeping protein. The fold change from untreated control was averaged from two independent experiments ±SEM and one-way ANOVA was used to calculate the statistical significance. A Fisher LSD post hoc test was performed to compare the treatments to the control in (FIG. 8E) LLC, (FIG. 8F) H1650, (FIG. 8G) A549 cells. * p<0.05, ** p<0.01, *** p<0.001, **** p<0.0001.\nIn vitro WFA-treated or control cells were collected using Accutase cell detachment solution and stained with FACS-diluted (PBS, 10% FBS, 2 mMEDTA) pre-titrated fluorophore conjugated or primary unconjugated antibody solutions (Table 1) for 30 min on ice in the dark. […]"}, "[4]": {"test_system": "bone marrow-derived DCs co-cultured with WFA-pretreated LLC", "settings": "DC:LLC 5:1, 24 h co-culture, vs untreated LLC", "protocol": "Cells were treated with WFA for 48 h then collected using Accutase cell detachment solution. […] (FIG. 2E) Bone marrow-derived DC were co-cultured with WFA-pretreated LLC cells (24 h) in a ratio 5:1 of DC:LLC cells for 24 h. DC activation markers (CD80, CD86, and MHC-II) were examined by flow cytometry. The means of at least 2 independent experiments ±SEM is represented, and one-way ANOVA was used to calculate statistical significance where * denotes p<0.05, ** denote p<0.01, *** denote p<0.001, and **** denote p<0.0001.\nHierarchical gating was used to identify the total cell population followed by single live cells the CD11C+DC. Out of the CD11C population, the expression of DC cell activation markers was determined based on the fluorescence minus one (FMO) controls.\nMyeloid progenitor cells were isolated from the femurs of C57BL/6 mice as described previously [37]. The isolated cells were cultured in RMPI media supplemented with GMCSF and refed as necessary. On day 8, the differentiated DCs (loosely attached) were collected, counted, and added to WFA-pretreated LLCs or untreated control LLCs at a ratio of 5:1 of DC: LLC cells. […] Then the samples were acquired using a BD LSR II flow cytometer and the data were analyzed using FlowJo 8.7 software (BD, Franklin Lakes, NJ, USA)."}, "[5]": {"test_system": "PD-L1 in NRF-2 knockdown LLC or H1650 cells", "assay": "NRF-2 siRNA knockdown then WFA, PD-L1 by flow cytometry", "assay_type": "cell-based, mouse (LLC), human (H1650)", "settings": "WFA 24 h after siRNA, similar to scramble controls"}, "[6]": {"test_system": "secreted HMGB-1 from LLC cells", "assay": "HMGB-1 ELISA of supernatants", "assay_type": "cell-based, mouse", "settings": "0.6 μM WFA, 48 h", "method": "as §1\nLLC cells were plated and treated with WFA or doxorubicin (ICD inducer) for 48 h. Supernatants were collected and centrifuged at 1000 RPM for 10 min. The levels of secreted HMGB-1 were measured using the HMGB-1 detection ELISA kit (Chondrex, 6010, Woodinville, WA, USA) according to the manufacturer's protocol."}, "[7]": {"test_system": "PD-L1 upregulation in MC-38, HCT-116, 4T-1, and MDA-MB-231 cell lines", "assay": "PD-L1 with WFA and NAC in colorectal and breast cancer cell lines", "assay_type": "cell-based, mouse (MC-38, 4T1), human (HCT-116", "settings": "breast cancer cell lines (4T1 1 μM, MDA-MB-231 2 μM WFA)"}}, "data": [{"smiles": "CC1=C(CO)C(=O)O[C@@H]([C@@H](C)[C@H]2CC[C@H]3[C@@H]4C[C@H]5O[C@]56[C@@H](O)C=CC(=O)[C@]6(C)[C@H]4CC[C@]23C)C1", "note": "[WFA, Withaferin A]", "values": [{"measurement": "ecto-CRT expression", "setting": "[1]", "result": "increased"}, {"measurement": "MDSC tumor infiltration and immunosuppressive function", "setting": "[2]", "result": "reducing"}, {"measurement": "PD-L1 expression", "setting": "[3]", "result": "increased"}, {"measurement": "DC activation markers CD80, CD86, MHC-II", "setting": "[4]", "result": "higher levels"}, {"measurement": "PD-L1 in NRF-2 knockdown cells", "setting": "[5]", "result": "still upregulated"}, {"measurement": "HMGB-1 levels secreted in the supernatants", "setting": "[6]", "result": "increased"}, {"measurement": "PD-L1 expression", "setting": "[7]", "result": "increases"}]}]}
